Experimental data as given in patent publication US6362183B1, “Aromatic sulfonyl alpha-hydroxy hydroxamic acid compounds” (G. D. Searle & Company, priority 1997, dated 2002).

Assays:
Experiment in all cases: In vitro metalloprotease inhibition, fluorogenic peptide assay
Type in all cases: biochemical
recombinant human MMP-1 = molecular target: T1, recombinant human MMP-1 (Homo sapiens, UniProt P03956); conditions: for IC50: APMA-activated enzyme, MCA peptide substrate 4 μM, room temperature, pH 7.5; for inhibitory activity against MMP-1 (in words): discussion of Table 51
T1 construct: made in house; host or cells: transfected HT-1080 cells
T1 sequence (P03956 100-469): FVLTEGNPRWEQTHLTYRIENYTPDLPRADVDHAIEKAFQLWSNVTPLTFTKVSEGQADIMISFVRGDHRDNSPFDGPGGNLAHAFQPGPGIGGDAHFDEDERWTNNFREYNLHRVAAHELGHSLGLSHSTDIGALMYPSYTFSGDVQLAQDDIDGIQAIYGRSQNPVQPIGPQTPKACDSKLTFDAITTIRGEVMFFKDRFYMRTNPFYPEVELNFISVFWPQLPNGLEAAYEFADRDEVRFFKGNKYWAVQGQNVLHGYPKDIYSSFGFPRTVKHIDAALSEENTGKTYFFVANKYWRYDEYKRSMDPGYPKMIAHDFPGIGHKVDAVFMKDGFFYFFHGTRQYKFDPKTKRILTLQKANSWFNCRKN
Experimental: (§1) Briefly, 4-aminophenylmercuric acetate (APMA) or trypsin activated MMPs were incubated with various concentrations of the inhibitor compound at room temperature for 5 minutes.
(§2) More specifically, recombinant human MMP-13 and MMP-1 enzymes were prepared in laboratories of the assignee. MMP-13 was expressed in baculovirus as a proenzyme, and purified first over a heparin agarose column and then over a chelating zinc chloride column. The proenzyme was activated by APMA for use in the assay. MMP-1 expressed in transfected HT-1080 cells was provided by Dr. Howard Welgus of Washington University, St. Louis, Mo. The enzyme was also activated using APMA and was then purified over a hydroxamic acid column.
(§3) MCA-ProLeuGlyLeuDpaAlaArgNH^2, wherein MCA is methoxycoumarin and Dpa is 3-(2,4-dinitrophenyl)-L-2,3-diaminopropionyl alanine.
(§4) The buffer used for assays contained 100 mM Tris-HCl, 100 mM NaCl, 10 mM CaCl2 and 0.05 percent polyethyleneglycol (23) lauryl ether at a pH value of 7.5.

recombinant human MMP-13 = molecular target: T2, recombinant human MMP-13 (Homo sapiens, UniProt P45452); conditions: for IC50: APMA-activated enzyme, MCA peptide substrate 4 μM, room temperature, pH 7.5; for inhibitory activity against MMP-13 (in words): discussion of Table 51
T2 construct: made in house
Experimental: as §1, §2, §3, §4

MMP-2 = molecular target: T3, MMP-2 (Homo sapiens, UniProt P08253); conditions: for IC50: MCA peptide substrate 4 μM, room temperature, pH 7.5
T3 sequence (P08253 110-660): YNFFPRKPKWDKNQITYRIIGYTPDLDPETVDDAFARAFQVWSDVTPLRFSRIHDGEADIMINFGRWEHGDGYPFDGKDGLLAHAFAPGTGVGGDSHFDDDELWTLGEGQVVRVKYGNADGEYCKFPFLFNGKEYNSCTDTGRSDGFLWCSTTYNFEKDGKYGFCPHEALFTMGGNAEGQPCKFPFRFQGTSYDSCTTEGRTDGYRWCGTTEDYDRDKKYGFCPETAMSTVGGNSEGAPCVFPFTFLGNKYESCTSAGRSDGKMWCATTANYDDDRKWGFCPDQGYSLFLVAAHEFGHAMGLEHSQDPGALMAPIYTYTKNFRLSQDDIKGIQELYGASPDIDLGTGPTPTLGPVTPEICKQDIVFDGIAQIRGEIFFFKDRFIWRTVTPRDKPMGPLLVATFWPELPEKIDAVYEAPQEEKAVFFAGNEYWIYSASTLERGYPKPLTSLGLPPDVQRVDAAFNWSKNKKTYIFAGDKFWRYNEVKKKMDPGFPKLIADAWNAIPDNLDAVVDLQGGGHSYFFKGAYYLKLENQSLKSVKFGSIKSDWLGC
Experimental: as §1, §3, §4

MMP-9 = MMP-9 (Homo sapiens, UniProt P14780); conditions: MCA peptide substrate 4 μM, room temperature, pH 7.5
Experimental: as §1, §3, §4

Chain of MMP-9 (P14780 107-707 limits assumed, species assumed): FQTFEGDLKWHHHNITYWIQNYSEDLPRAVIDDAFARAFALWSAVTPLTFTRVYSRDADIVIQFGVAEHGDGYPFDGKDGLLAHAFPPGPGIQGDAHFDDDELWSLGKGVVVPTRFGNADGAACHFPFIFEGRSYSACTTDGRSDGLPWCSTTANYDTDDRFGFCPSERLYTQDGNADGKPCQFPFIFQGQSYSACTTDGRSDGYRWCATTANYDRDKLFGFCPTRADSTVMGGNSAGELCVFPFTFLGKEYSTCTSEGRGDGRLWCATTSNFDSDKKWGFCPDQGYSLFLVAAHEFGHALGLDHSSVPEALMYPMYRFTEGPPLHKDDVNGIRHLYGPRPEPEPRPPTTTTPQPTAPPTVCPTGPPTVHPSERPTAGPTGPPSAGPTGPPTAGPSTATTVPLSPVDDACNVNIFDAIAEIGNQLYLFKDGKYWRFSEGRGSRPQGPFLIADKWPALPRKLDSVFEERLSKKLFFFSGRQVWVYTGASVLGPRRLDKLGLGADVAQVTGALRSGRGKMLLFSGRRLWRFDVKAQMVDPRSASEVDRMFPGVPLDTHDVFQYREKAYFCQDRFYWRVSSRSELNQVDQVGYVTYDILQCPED

| SMILES | IC50 (recombinant human MMP-1) [nM] | IC50 (recombinant human MMP-13) [nM] | IC50 (MMP-2) [nM] | IC50 (MMP-9) [nM] | inhibitory activity against MMP-1 (in words) (recombinant human MMP-1) | inhibitory activity against MMP-13 (in words) (recombinant human MMP-13) | inhibitory activity against MMP-2 (in words) (MMP-2; discussion of Table 51) |
| --- | --- | --- | --- | --- | --- | --- | --- |
| CCCCc1ccc(C(=O)Nc2ccc(S(=O)(=O)CC(C)(O)C(=O)NO)cc2)cc1 (stereo not drawn) [Example 28, 4-butyl-N-[4-[[2-hydroxy-3-(hydroxyamino) -2-methyl-3-oxopropyl]-sulfonyl]phenyl]benzamide] | > 10000 | 0.8 | < 0.1 |  |  |  |  |
| CCCCCCCOc1ccc(C(=O)Nc2ccc(S(=O)(=O)CC(C)(O)C(=O)NO)cc2)cc1 (stereo not drawn) [Example 24, 4-(heptyloxy)-N-[4-[[2-hydroxy-3-(hydroxyamino)-2-methyl-3-oxopropyl]sulfonyl]phenyl]benzamide] | > 10000 | < 0.1 | < 0.1 |  | lower than could be measured in the assay | greater than could be measured in the assay | greater than could be measured in the assay |
| CC(O)(CS(=O)(=O)c1ccc(NC(=O)Nc2ccccc2)cc1)C(=O)NO (stereo not drawn) [Example 15, N,2-dihydroxy-2-methyl-3-[[4-[((phenylamino)carbonyl)amino]phenyl]sulfonyl]propanamide] | > 10000 | 3200 | 87 |  |  |  |  |
| CC(O)(CS(=O)(=O)c1ccc(NC(=O)c2ccc(Cl)nc2)cc1)C(=O)NO (stereo not drawn) [Example 22, 6-chloro-N-(4-[[2-hydroxy-3-(hydroxyamino)-2-methyl-3-oxopropyl]sulfonyl]phenyl]-3-pyridinecarboxamide] | > 10000 | 280 | 6.7 |  |  |  |  |
| COc1ccc(S(=O)(=O)CC(O)C(=O)NO)cc1 (stereo not drawn) [Example 8, N,2-dihydroxy-3-[(4-methoxyphenyl)sulfonyl]propanamide] | > 10000 | 200 |  |  | relatively inactive | only slightly better |  |
| CC(O)(CS(=O)(=O)c1ccc(NC(=O)c2cccc(Cl)c2)cc1)C(=O)NO (stereo not drawn) [Example 31, 3-chloro-N-[4-[[2-hydroxy-3-(hydroxyamino)-2-methyl-3-oxopropyl]sulfonyl]phenyl]benzamide] | > 10000 | 600 | 37.2 |  |  |  |  |
| CCCCCc1ccc(C(=O)Nc2ccc(S(=O)(=O)CC(C)(O)C(=O)NO)cc2)cc1 (stereo not drawn) [Example 14, N-[4-[[2-hydroxy-3-(hydroxyamino)-2-methyl-3-oxopropyl]sulfonyl]phenyl]pentylbenzamide] | > 10000 | 0.5 | < 0.1 |  |  |  |  |
| CCCc1ccc(C(=O)Nc2ccc(S(=O)(=O)CC(C)(O)C(=O)NO)cc2)cc1 (stereo not drawn) [Example 26, N-[4-[[2-hydroxy-3-(hydroxyamino)-2-methyl-3-oxopropyl]-sulfonyl]phenyl]4-propylbenzamide] | > 10000 | 1.2 | 0.1 |  |  |  |  |
| Cc1cccc(C(=O)Nc2ccc(S(=O)(=O)CC(C)(O)C(=O)NO)cc2)c1 (stereo not drawn) [Example 30, N-[4-[[2-hydroxy-3-(hydroxyamino)-2-methyl-3-oxopropyl]sulfonyl]phenyl]-3-methylbenzamide] | > 10000 | 316 | 20 |  |  |  |  |
| O=C(NO)C(O)CS(=O)(=O)c1ccc(Sc2ccccc2)cc1 (stereo not drawn) [Example 12, N,2-dihydroxy-3-[[4-(phenylthio)phenyl]sulfonyl]propanamide] | > 10000 | 3.7 | 2 | 175 |  |  |  |
| O=C(Nc1ccc(S(=O)(=O)CC(O)C(=O)NO)cc1)c1ccccc1 (stereo not drawn) [Example 23, N-[4-[[2-hydroxy-3-(hydroxyamino)-3-oxopropyl]sulfonyl]phenyl]benzamide] | > 10000 | 220 | 2.8 | 1330 |  |  |  |
| CCCCOc1ccc(C(=O)Nc2ccc(S(=O)(=O)CC(C)(O)C(=O)NO)cc2)cc1 (stereo not drawn) [Example 25, 4-butoxy-N-[4-[[2-hydroxy-3-(hydroxyamino)-2-methyl-3-oxopropyl]sulfonyl]phenyl]benzamide] | > 10000 | 1.2 | 0.2 |  |  |  |  |
| Cc1cccc(NC(=O)Nc2ccc(S(=O)(=O)CC(C)(O)C(=O)NO)cc2)c1 (stereo not drawn) [Example 20, N,2-dihydroxy-2-methyl-3-[[4-[[[(3-methylphenyl)amino]carbonyl]amino]phenyl]sulfonyl]propanamide] | > 10000 | 6600 | 300 |  |  |  |  |
| Cc1ccccc1NC(=O)Nc1ccc(S(=O)(=O)CC(C)(O)C(=O)NO)cc1 (stereo not drawn) [Example 19, N,2-dihydroxy-2-methyl-3-[[4-[[[(2-methylphenyl)amino]carbonyl]amino]phenyl]sulfonyl]propanamide] | > 10000 | 10000 | 2600 |  |  |  |  |
| CC(O)(CS(=O)(=O)c1ccc(NC(=O)c2ccc(Cl)cc2)cc1)C(=O)NO (stereo not drawn) [Example 18] | > 10000 | 13 | 0.5 |  |  |  |  |
| CC(C)CC(=O)Nc1ccc(S(=O)(=O)CC(C)(O)C(=O)NO)cc1 (stereo not drawn) [Example 17, N-[4-[[2-hydroxy-3-(hydroxyamino)-2-methyl-3-oxopropyl]sulfonyl]phenyl]-3-methylbutanamide] | > 10000 | 900 | 400 |  |  |  |  |
| O=C(NO)C(O)(CO)CS(=O)(=O)c1ccc(Sc2ccccc2)cc1 (stereo not drawn) [Example 13] | > 10000 | 5 | 2.3 | 70 |  |  |  |

Now from value to molecule, other results behind:

| IC50 (recombinant human MMP-1) [nM] | IC50 (recombinant human MMP-13) [nM] | IC50 (MMP-2) [nM] | IC50 (MMP-9) [nM] | SMILES | inhibitory activity against MMP-1 (in words) (recombinant human MMP-1) | inhibitory activity against MMP-13 (in words) (recombinant human MMP-13) | inhibitory activity against MMP-2 (in words) (MMP-2; discussion of Table 51) |
| --- | --- | --- | --- | --- | --- | --- | --- |
| > 10000 | 1600 | 32.7 |  | CC(O)(CS(=O)(=O)c1ccc(NC(=O)c2cccc(NCCCCO)c2)cc1)C(=O)NO (stereo not drawn) [Example 34] |  |  |  |
| 7000 | 5 | 7 | 66 | O=C(NO)[C@H](O)CS(=O)(=O)c1ccc(Oc2ccccc2)cc1 [Example 11, (S)—N,2-dihydroxy-3-[(4-phenoxyphenyl)sulfonyl]propanamide] |  |  |  |
| > 10000 | 3600 | 34 |  | Cc1ccc(NC(=O)Nc2ccc(S(=O)(=O)CC(C)(O)C(=O)NO)cc2)cc1 (stereo not drawn) [Example 21, N,2-dihydroxy-2-methyl-3-[[4-[[[(4-methylphenyl)amino]carbonyl]amino]phenyl]sulfonyl]propanamide] |  |  |  |
| > 10000 | 80 | 1.8 |  | CC(O)(CS(=O)(=O)c1ccc(NC(=O)c2cccc(F)c2)cc1)C(=O)NO (stereo not drawn) [Example 29] |  |  |  |
| > 10000 | 290 | 6.7 |  | CC(O)(CS(=O)(=O)c1ccc(NC(=O)c2cccc(N)c2)cc1)C(=O)NO (stereo not drawn) [Example 35, 3-amino-N-[4-[[2-hydroxy-3-(hydroxyamino)-2-methyl-3-oxopropyl]-sulfonyl]phenyl]benzamide] |  |  |  |
| > 10000 | 1600 | 50 |  | CC(O)(CS(=O)(=O)c1ccc(NC(=O)c2cccc([N+](=O)[O-])c2)cc1)C(=O)NO (stereo not drawn) [Example 33] |  |  |  |
| > 10000 | 80 | 1.6 |  | CC(O)(CS(=O)(=O)c1ccc(NC(=O)c2ccc(F)c(F)c2)cc1)C(=O)NO (stereo not drawn) [Example 32, 3,4-difluoro-N-[4-[[2-hydroxy-3-(hydroxyamino)-2-methyl-3-oxopropyl]sulfonyl]phenyl]benzamide] |  |  |  |
| 8000 | 30 | 14.8 |  | COCC(O)(CS(=O)(=O)c1ccc(Oc2ccccc2)cc1)C(=O)NO (stereo not drawn) [Example 6, N,2-dihydroxy-2-(methoxymethyl)-3-[(4-phenoxyphenyl)sulfonyl]propanamide] |  |  |  |
| > 10000 | 666 | 10 |  | COc1cccc(C(=O)Nc2ccc(S(=O)(=O)CC(C)(O)C(=O)NO)cc2)c1 (stereo not drawn) [Example 27] |  |  |  |
| 4000 | 1 | 0.4 | 18 | O=C(NO)[C@@H](O)CS(=O)(=O)c1ccc(Oc2ccccc2)cc1 [Example 10, (R)—N,2-dihydroxy-3-[(4-phenoxyphenyl)sulfonyl]propanamide] |  |  |  |
